The results in this text go back to patent US9056837B2, “Heterocycle compounds and uses thereof” (Intra-Cellular Therapies, Inc., priority 2007, dated 2015).

Molecules are shown by their SMILES. Some results are limits rather than exact numbers.

The data set is described as follows: Mouse brain/plasma distribution assay for tissue levels of test compounds. It is filed as in vivo, C57b1/6 black mice. The settings on record: C57Bl/6, mouse, brain, sc; mice, subcutaneous single injection of 1 mg (10 mM DMSO solution); four hours post-administration; measured minus 2% of plasma. On the procedure: Compounds are administered subcutaneously to C57b1/6 black mice as a single injection of 1 mg using a 10 mM DMSO solution. After 2 or 4 hours, the mice are sacrificed. Trunk blood is collected into tubes with potassium-EDTA as anticoagulant and centrifuged at 5000×g for 10 min. The upper plasma phase is decanted from cellular components. Whole brain is sonicated with 20 mM Tris-HCl, 135 mM NaCl, pH 7.4 buffer, giving at 200 mg/mL (w/v) homogenate. Brain homogenate or plasma is extracted with 2 volumes of acetonitrile and clarified by centrifugation at 15,000×g for 20 min. Extracts are separated by HPLC using a Waters Alliance 2695 separations module with a Sunfire™ C18 column (3.5 micron, 2.1×50 mm) and a gradient of methanol over 15 min in a mobile phase of 0.1% formic acid. The separation is monitored by a Micromass Quattro Micro triple-quadrupole mass-spectrometric detector. Compound standardization is performed by methods analogous to those previously reported, e.g., by Zhao, M., et al. (2005) J Chromatogr B Analyt Technol Biomed Life Sci 819, 73-80; and Appels, N. M et al. (2005) Rapid Commun Mass Spectrom 19, 2187-2192. Brain concentration=measured−2% of plasma B/P ratio=brain concentration/plasma concentration

Regarding `Cc1ccc(NC(=O)c2ccc(CN3CCN(C)CC3)cc2)cc1Nc1nccc(-c2cccnc2)n1` [imatinib], the concentration at 4 h was less than 100 nM.
